Experiments:
[1] = reaction with atmospheric oxygen (antioxidant action); type: physicochemical; conditions: in solution and in solid form
Description: The compounds of the formula (I) can also be used as antioxidants. Antioxidants (oxidation inhibitors) are organic compounds which inhibit or prevent undesired changes in the substances to be protected caused by the effects of oxygen. Antioxidants are needed, for example, in plastics for protection against ageing, in fats for protection against rancidity, in oils against resinification, in aromatic substances against odor impairment, in foodstuffs, and in pharmaceuticals. The action of the antioxidants usually consists in acting as radical scavengers for the free radicals occurring in the oxidation. The antioxidative action of atrovenetin (compound of the formula (III)) has already been described by Y. Ishikawa et al. (J. Am. Oil Chem. Soc. 68, 666-668, 1991). Microbial antioxidants, however, are often too weak or not highly tolerable in their action. There is therefore a great need for novel, efficacious and tolerable antioxidants. […] This increased affinity of penilenone for oxygen, however, is decidedly advantageous for very oxidation-sensitive substances.

Streptomyces murinus = experiment: agar diffusion test (antibiogram on solid nutrient plates with antibiotic diffusion); type: cell-based; conditions: agar plate containing Streptomyces murinus culture
Procedure: Moreover to be emphasized is an antimicrobial inhibitory action of the compounds of formula (I) according to the invention on bacteria, such as, for example, Staphylococcus aureus, Streptomyces murinus and against fungi, such as Aspergillus niger, which can cause stubborn, life-threatening infectious diseases. […] Thus, penilenone on an agar plate containing Streptomyces murinus culture in a solution of 1 mg per mL causes an inhibition halo of 11 mm and in a solution of 0.1 mg per mL an inhibition halo of 8 mm. The compounds of the formula (I) according to the invention are therefore likewise suitable for the treatment and/or prophylaxis of bacterial infections and/or fungal diseases (micosis or mycoses).

[2] = solubility (physicochemical properties)
Description: (§1) The melting point is not determinable because of decomposition. Stable in mildly acidic medium under reducing conditions. Under the influence of oxygen, penilenone turns green in neutral medium or in the presence of amines.

[3] = stability (physicochemical properties)
Description: as §1

| solubility in water ([2]; water) | stability ([3]; mildly acidic medium under reducing conditions) | behaviour under the influence of oxygen ([3]; neutral medium or in the presence of amines) | Structure (SMILES) | reaction with atmospheric oxygen [1] | inhibition halo (Streptomyces murinus; solution of 0.1 mg per mL) [mm] | inhibition halo (Streptomyces murinus; solution of 1 mg per mL) [mm] | solubility in organic solvents ([2]; medium polar and polar organic solvents) |
| --- | --- | --- | --- | --- | --- | --- | --- |
|  |  |  | Cc1cc(O)c2c3c(c(O)c4c(c13)OC(C)C4(C)C)C(O)=C(O)C2=O (centres unmarked) [atrovenetin, reference compound] | reacts only slowly with atmospheric oxygen |  |  |  |
| not very soluble in water | Stable | turns green | Cc1cc(O)c2c3c(c(O)cc(O)c13)C(O)=C(O)C2=O [penilenone] | combines with oxygen within seconds or in a few minutes | 8 | 11 | soluble in medium polar and polar organic solvents |

— US20040014807A1, “Phenalenone derivatives, processes for preparation and use thereof” (priority 2002, published 2004)
